Experimental findings from patent US20260234165A1, “MACROCYCLIC COMPOUNDS, PREPARATION METHOD THEREFOR, AND USE THEREOF” (GENFLEET THERAPEUTICS (SHANGHAI) INC., priority 2004, published 2026) are described below.

SMILES strings stand for the structures. Read-outs that look alike come from different tables or passages of the source.

Holding throughout (assay type): cell-based, human
In test [1] the test system is p-ERK in AsPC-1 cells (KRAS G12D mutation). The experiment in a line: Cell p-ERK assay (HTRF) in AsPC-1 cells. Conditions: AsPC-1 cells, 3 h compound incubation, HTRF p-ERK T202/Y204, read-out: AsPC-1 p-ERK IC50. A digest of the protocol: (§1)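 Cells are plated (AsPC-1 at 10000, NCI-H441 at 20000 per well) and cultured overnight. Next day compound is added in a 3.16-fold dilution series with 0.1% DMSO and left 3 h. After lysis, p-ERK antibodies incubate 4 h before HTRF reading and four-parameter IC50 fitting.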

The subject of test [2] is AsPC-1 cells (KRAS G12D mutation). Kind of test: 3D cell proliferation assay (CellTiter Glo-3D), AsPC-1. Conditions: medium with 2% FBS, read-out: AsPC-1 AP IC50. A digest of the protocol: (§2)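 NCI-H441 ([…] lung) and AsPC-1 (KRAS G12D pancreatic) cells, 800 per well, were seeded in RPMI-1640 with 2% FBS and dosed next day with 3.16-fold compound dilutions (0.1% DMSO). After 5 days at 37 °C, CellTiter-Glo 3D luminescence gave inhibition versus DMSO and blank; IC50 from four-parameter fit.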
(In general: Cellular ATP, detected with luciferase, serves as a proxy for viable cell number.)

Test [3] has as its system NCI-H441 cells. The experiment in a line: 3D cell proliferation assay (CellTiter Glo-3D), NCI-H441. Particulars: medium with 2% FBS, read-out: H441 AP IC50. Put shortly:
as §2

In test [4] the test system is p-ERK in NCI-H441 cells (KRAS G12V mutation). The experiment in a line: Cell p-ERK assay (HTRF) in NCI-H441 cells. Conditions: NCI-H441 cells, 3 h compound incubation, HTRF p-ERK T202/Y204, read-out: H441 p-ERK IC50. A digest of the protocol:
as §1
In general terms: TR-FRET usually uses a lanthanide donor and a delayed reading to cut background.

[5] abbreviates: 3D cell proliferation (CellTiter Glo-3D).
The mark [6] stands for this setting: Homo sapiens, ASPC1, 3D cell proliferation (CellTiter Glo-3D).
[7] abbreviates: Homo sapiens, NCI-H441, 3D cell proliferation (CellTiter Glo-3D).

As usually defined, the IC50 is the concentration needed to halve the response being measured. Consider `CCn1c(-c2cc(OCCN3CCS(=O)(=O)CC3)cnc2[C@H](C)OC)c2c3cc(ccc31)-c1csc(n1)C[C@H](NC(=O)C(C)C(C)C)C(=O)N1CCC[C@H](N1)C(=O)OCC(C)(C)C2` (stereo partly drawn) [Compound Z607, N-((6^3S,4S,Z)—(R4)-1^2(5-(2-(1,1-dioxidothiomorpholino)ethoxy)-2-((S)-1-methoxyethyl)pyridin-3-yl)-1^1-ethyl-10,10-dimethyl-5,7-dioxo-6^1,6^2,6^3,6^4,6^5,6^6-hexahydro-1^1H-8-oxa-2(4,2)-thiazola-1(5,3)-indola-6(1,3)-pyridazinacycloundecaphane-4-yl)-2,3-dimethylbutanamide], for which the half-maximal inhibitory concentration (IC50) in test [1] came out at 0.54 nM; in test [2] (setting [5]), 1.12 nM; in test [3] (setting [5]), 0.36 nM; in test [4], 0.45 nM.

As to `CCn1c(-c2cc(OCCN3CCC4(CC4)C3)cnc2[C@H](C)OC)c2c3cc(ccc31)-c1csc(n1)C[C@H](NC(=O)[C@H]1[C@H](C)[C@@H]1C)C(=O)N1CCC[C@H](N1)C(=O)OCC1(CC1)C2` [Compound Z415, (1r,2R,3S)—N-((3′S,4′S,Z)-2′-(5-(2-(5-azaspiro[2.4]heptan-5-yl)ethoxy)-2-((S)-1-methoxyethyl)pyridin-3-yl)-1′-ethyl-5′,7′-dioxaspiro[cyclopropane-1,10′-8-oxa-2(4,2)-thiazola-1(5,3)-indola-6(1,3)-pyridazinacycloundecaphan]-4′-yl)-2,3-dimethylcyclopropane-1-carboxamide], the 50% inhibitory concentration (IC50) in test [1] (Homo sapiens, ASPC1, 3 h) worked out at 10.1 nM; in test [2] (setting [6]), 12.6 nM; in test [3] (setting [7]), 7.54 nM; in test [4] (Homo sapiens, NCI-H441, 3 h), 11.7 nM.

As to `CCn1c(-c2cc(C#CCN3CCCS(=O)(=O)CC3)cnc2[C@H](C)OC)c2c3cc(ccc31)-c1csc(n1)C[C@H](Nc1nnc3cc(C)ccn13)C(=O)N1CCC[C@H](N1)C(=O)OCC(C)(C)C2` (atropisomer, axis not shown; (Ra)) [Compound Z979], the IC50 is 2.47 nM in test [1] (Homo sapiens, ASPC1, 3 h); 5.14 nM in test [2] (setting [6]); 1.23 nM in test [3] (setting [7]); 1.05 nM in test [4] (Homo sapiens, NCI-H441, 3 h).

As to `CCn1c(-c2cc(OCCN3CCOC4(CC4)C3)cnc2[C@H](C)OC)c2c3cc(ccc31)-c1csc(n1)C[C@H](NC(=O)[C@H]1[C@H](C)[C@@H]1C)C(=O)N1CCC[C@H](N1)C(=O)OCC1(CC1)C2` (atropisomer, axis not shown; (Ra)) [Compound Z375], the IC50 in test [1] (Homo sapiens, ASPC1, 3 h) is 3.92 nM; in test [2] (setting [6]), 6.9 nM; in test [3] (setting [7]) it was 3.7 nM; in test [4] (Homo sapiens, NCI-H441, 3 h), 0.91 nM.

For `CCn1c(-c2cc(C#CCN3CCN(C)S(=O)(=O)CC3)cnc2[C@H](C)OC)c2c3cc(ccc31)-c1csc(n1)C[C@H](NC(=O)[C@H]1[C@H](C)[C@@H]1C)C(=O)N1CCC[C@H](N1)C(=O)OCC(C)(C)C2` [Compound Z847, (1r,2R,3S)—N-((6^3S,4S,Z)—1′-ethyl-(2-((S)-1-methoxyethyl)-5-(3-(2-methyl-1,1-dioxido-1,2,5-thiadiazepan-5-yl)prop-1-yn-1-yl)pyridin-3-yl)-10,10-dimethyl-5,7-dioxo-6^1,6^2,6^3,6^4,6^5,6^6-hexahydro-1^1H-8-oxa-2(4,2)-thiazola-1(5,3)-indola-6(1,3)-pyridazinacycloundecaphane-4-yl)-2,3-dimethylcyclopropane-1-carboxamide], the IC50 in test [1] (Homo sapiens, ASPC1, 3 h) is 0.11 nM; in test [2] (setting [6]), 0.13 nM; in test [3] (setting [7]), 0.29 nM; in test [4] (Homo sapiens, NCI-H441, 3 h), 0.13 nM.

As to `CCn1c(-c2cc(OCCN3CCP(C)(=O)CC3)cnc2[C@H](C)OC)c2c3cc(ccc31)-c1csc(n1)C[C@H](NC(=O)[C@H]1[C@H](C)[C@@H]1C)C(=O)N1CCC[C@H](N1)C(=O)OCC(C)(C)C2` (single isomer, unassigned) [Compound Z780], the IC50 is 3.35 nM in test [1] (Homo sapiens, ASPC1, 3 h); 4.51 nM in test [2] (setting [6]); 1.58 nM in test [3] (setting [7]); 1.56 nM in test [4] (Homo sapiens, NCI-H441, 3 h).

As for `CCn1c(-c2cc(C#CCN3CCC(N=S(C)(C)=O)CC3)cnc2[C@H](C)OC)c2c3cc(ccc31)-c1csc(n1)C[C@H](NC(=O)[C@H]1[C@H](C)[C@@H]1C)C(=O)N1CCC[C@H](N1)C(=O)OCC(C)(C)C2` [Compound Z1045], the half-maximal inhibitory concentration (IC50) was found to be 0.36 nM in test [1] (Homo sapiens, ASPC1, 3 h); 0.21 nM in test [2] (setting [6]); 0.17 nM in test [3] (setting [7]); 0.19 nM in test [4] (Homo sapiens, NCI-H441, 3 h).

For the molecule `CCc1ccn2c(N[C@H]3Cc4nc(cs4)-c4ccc5c(c4)c(c(-c4cc(N6CCN(C)CC6)cnc4[C@H](C)OC)n5CC)CC(C)(C)COC(=O)[C@@H]4CCCN(N4)C3=O)nnc2c1` (atropisomer, axis not shown; (Ra)) [Compound Z662, (6^3S,4S,Z)-1^1-ethyl-4-((7-ethyl-[1,2,4]triazolo[4,3-a]pyridin-3-yl)amino)-(Ra)-1^2-(2-((S)-1-methoxyethyl)-5-(4-methylpiperazin-yl)pyridin-3-yl)-10,10-dimethyl-6^1,6^2,6^3,6^4,6^5,6^6-hexahydro-1^1H-8-oxa-2(4,2)-thiazola-1(5,3)-indola-6(1,3)-pyridazinacycloundecaphane-5,7-dione], the half-inhibitory concentration (IC50) in test [1] (Homo sapiens, ASPC1, 3 h) is 34.4 nM; in test [2] (setting [6]), 67 nM; in test [3] (setting [7]), 11 nM; in test [4] (Homo sapiens, NCI-H441, 3 h) it was 5.4 nM.

With `CO[C@@H](C)c1ncc(OCCN2CCOC3(CC3)C2)cc1-c1c2c3cc(ccc3n1C(C)C)-c1csc(n1)C[C@H](NC(=O)[C@H]1[C@H](C)[C@@H]1C)C(=O)N1CCC[C@H](N1)C(=O)OCC1(CC1)C2` (atropisomer, axis not shown; (Ra)) [Compound Z462, (1r,2R,3S)—N-((3′S,4′S,Z)-2′-(5-(2-(4-oxa-7-azaspiro[2,5]octan-7-yl)ethoxy)-(Ra)-2-((S)-1-methoxyethyl)pyridin-3-yl)-1′-isopropyl 5′,7′-dioxospiro[cyclopropane-1,10′-8-oxa-2(4,2)-thiazola-1(5,3)-indola-6(1,3)-pyridazinacycloundecaphan]-4′-yl)-2,3-dimethylcyclopropane-1-carboxamide], the IC50 was found to be 1.6 nM in test [1] (Homo sapiens, ASPC1, 3 h); 2.72 nM in test [2] (setting [6]); 1.37 nM in test [3] (setting [7]); 1.12 nM in test [4] (Homo sapiens, NCI-H441, 3 h).

As to `CCn1c(-c2cc(C#CC3(N4CCC4)CC3)cnc2[C@H](C)OC)c2c3cc(ccc31)-c1csc(n1)C[C@H](NC(=O)[C@H]1[C@H](C)[C@@H]1C)C(=O)N1CCC[C@H](N1)C(=O)OCC(C)(C)C2` (atropisomer, axis not shown; (Ra)) [Compound Z836-1, (1r,2R,3S)—N-((4S,Z)—(Ra)-1^2-(5-((1-(azetidin-1-yl)cyclopropyl)ethynyl)-2-((S)-1-methoxyethyl)pyridin-3-yl)-1^1-ethyl-10,10-dimethyl-5,7-dioxo-6^1,6^2,6^3,6^4,6^5,6^6-hexahydro-1^1H-8-oxa-2(4,2)-thiazola-1(5,3)-indola-6(1,3)-pyridazinacycloundecaphane-4-yl)-2,3-dimethylcyclopropane-1-carboxamide], the concentration for half-maximal inhibition (IC50) came to 0.5 nM in test [1], 1.05 nM in test [2] (setting [5]), 0.64 nM in test [3] (setting [5]) and 0.83 nM in test [4].

As for `CCn1c(-c2cc(C#CCN3CCCNCC3)cnc2[C@H](C)OC)c2c3cc(ccc31)-c1csc(n1)C[C@H](NC(=O)[C@H]1[C@H](C)[C@@H]1C)C(=O)N1CCC[C@H](N1)C(=O)OCC(C)(C)C2` (atropisomer, axis not shown; (Ra)) [Compound Z951], the half-inhibitory concentration (IC50) was 0.42 nM in test [1] (Homo sapiens, ASPC1, 3 h); 0.36 nM in test [2] (setting [6]); 0.43 nM in test [3] (setting [7]); 0.5 nM in test [4] (Homo sapiens, NCI-H441, 3 h).

On to `CCn1c(-c2cc(C#CCN3CCS(=N)(=O)CC3)cnc2[C@H](C)OC)c2c3cc(ccc31)-c1csc(n1)C[C@H](NC(=O)[C@H]1[C@H](C)[C@@H]1C)C(=O)N1CCC[C@H](N1)C(=O)OCC(C)(C)C2` (atropisomer, axis not shown; (Ra)) [Compound Z850, (1r,2R,3S)—N-((6^3S,4S,Z)-1^1-ethyl-(Ra)-1^2-(5-(3-(1-imino-1-oxo-11^6-thiomorpholino)prop-1-yn-1-yl)-2-((S)-1-methoxyethyl)pyridin-3-yl)-10,10-dimethyl-5,7-dioxo-6^1,6^2,6^3,6^4,6^5,6^6-hexahydro-1^1-8-oxa-2(4,2)-thiazola-1(5,3)-indola-0(1,3)-pyridazinacycloundecaphane-4-yl)-2.3-dimethylcyclopropane-1-carboxamide], for which the IC50 in test [1] (Homo sapiens, ASPC1, 3 h) was found to be 0.18 nM; in test [2] (setting [6]) it was 0.08 nM; in test [3] (setting [7]), 0.13 nM; in test [4] (Homo sapiens, NCI-H441, 3 h), 0.25 nM.
